PMC9828538, “Antigiardial Activity of Novel Guanidine Compounds” (Chemmedchem, 2022)
≈ marks a conversion by molar mass, not a printed value. Structures can show the parent of a compound that is named as a salt. Where two headings read alike, the source gives them in different places.

What was measured:
[1] = system: Giardia duodenalis trophozoites (BAH2c2 strain); assay: Resazurin reduction assay on Giardia trophozoites in vitro; format: cell-based; conditions: for MIC: minimum inhibitory concentration, read-out: Antigiardial activity MIC (24 h); for Selectivity ratio: higher ratios = more selective; for Antigiardial activity MLC (24 h): minimum lethal concentration; for Antigiardial activity at 5 h: 25 μM
Excerpt: (§1) Biology Materials and Methods:
Metronidazole was sourced from sigma.
Chemicals used for the culture of Giardia in vitro were sourced as follows: glucose and L-cysteine (ACROS organics, Thermo Fisher Scientific, Scoresby, Vic), Ammonium Iron (III) citrate, ascorbic Acid (Sigma -aldrich, Castle Hill, NSW), potassium dihydrogen orthophosphate (UNIVAR, Ingleburn, NSW), bovine bi le (Fluka analytical (BD)), di-potassium hydrogen orthophosphate (Fronine laboratory supplies, Riverstone, NSW).
G. duodenalis (BAH2c2 strain) was cultivated according to the method of Clark and Diamond in Keister’s modified TYI-S-33 medium, supplemented with heat inactivated foetal bovine serum (Hyclone™, Thermo Scientific, Scoresby, Vic) at 37°C in plastic 9 mL screw-capped test tubes (nunc). Subcultures were performed once a confluent monolayer was observed, approximately 2 – 3 times per week (Clark and Diamond, 2002).
(§2) CaCo-2 cells, a human cell line derived from a primary colonic tumour, were sourced from Cellbank Australia and were maintained in MEM supplemented with 2 mM glutamine, 1% non-essential amino acids and 10% FCS (Thermo Scientific). Cells were passaged when confluent, approximately 1-2 times per week. Vero cells were also obtained from Cellbank Australia and maintained as above.
(§3) In vitro drug efficacy assays
Resazurin Reduction Assay […]
tested to identify the IC50 and minimum lethal concentration (MLC). For all assays the media of confluent cultures was replaced with fresh media and the cultures were placed on ice for 40 minutes to detach trophozoites.
Trophozoites were enumerated using a haemocytometer and 50 000 trophozoites were added to each test well of a 96 well plate. Either single concentrations (final concentration 25 μM) for the screening assay or tripling dilutions […]
wells. The assays were repeated in triplicate with metronidazole and a DMSO (vehicle only) used as controls. Plates were incubated under anaerobic conditions (anaerogen sachet, Thermofisher scientific) for 5 or 24 hours at 37°C following which the viability of treated cells was determined using the resazurin reduction assay (Benere et al., 2007). The media was removed and replaced with an equal volume of warm PBS. Resazurin (Sigma) was then added at 10% of the total volume of the wells. Plates were further incubated for colour development and absorbance read at 570 nm and 630 nm. Resazurin reduction was calculated according to the following formula: […]
(§4) CaCo-2 or Vero cells, maintained as outlined above, were collected via trypsinisation and enumerated using trypan blue and a haemocytometer. Select analogues were prepared in DMSO so that the final concentration in the assay was 25 μM. 1 X 10^5 cells/ml were added to each assay with the appropriate drug dilution. Assays were completed in 96 well plates and incubated for 24 hours at 37°C, 5% CO2 in a humidified incubator. After incubation cells were […]
(§5) washed with warm PBS before the addition of 10% resazurin in PBS. Assays were incubated to allow colour development and absorbance read at 630 and 570nm. Activity of the analogues against mammalian cells was calculated according to the formula stated above.

CaCo-2 cells = conditions: human, 24 h, 25 μM
Procedure: (§6) Biology Materials and Methods: […]
as §2
(§7) In vitro drug efficacy assays […]
(§8) 2007). The media was removed and replaced with an equal volume of warm PBS. Resazurin (Sigma) was then added at 10% of the total volume of the wells. Plates were further incubated for colour development and absorbance read at 570 nm and 630 nm. Resazurin reduction was calculated according to the following formula: […]
as §4, §5

Vero cells = assay: In vitro cytotoxicity, Vero cells; conditions: 25 μM; for Toxicity (% growth control): Percent Vero cell growth; for Toxicity (% growth control) / Toxicity (Y/N): 24 h
Procedure: as §6, §2, §7
as §8, with “The” for “2007). The”
CaCo-2 or Vero cells, maintained as outlined above, were collected via trypsinisation and enumerated using trypan blue and a haemocytometer. Select analogues were prepared in DMSO so that the final concentration in the assay […]
in 96 well plates and incubated for 24 hours at 37°C, 5% CO2 in a humidified incubator. After incubation cells were […]
washed with warm PBS before the addition of 10% resazurin in PBS. Assays were incubated to allow colour development and absorbance read at 630 and 570nm. Activity of the analogues against mammalian cells was calculated according to the formula stated above. […]
reduction assay the mean and standard error of the mean was determined with each assay completed in triplicate.
The IC50 was calculated using the log (inhibitor) vs. normalised response – variable slope function in Graphpad […]

Escherichia coli = assay: Antibacterial activity against gram negative bacteria (E. coli); format: cell-based
Procedure: as §1
Metronidazole was sourced from sigma. […]
hydrogen orthophosphate (Fronine laboratory supplies, Riverstone, NSW).
Subcultures were performed once a confluent
Scientific). […] Vero cells were also obtained from Cellbank Australia and maintained as above.
as §3
Resazurin Reduction Assay
For all assays the media of confluent cultures
2007). […] Resazurin (Sigma) was then
Plates were further incubated for colour development and absorbance read at 570 nm and 630 nm. Resazurin reduction was calculated according to the following formula: […]
broth for a random selection of compounds (Thermofisher Scientific). Compounds were diluted in DMSO to 100X […]
Cells were incubated for 18-24 hrs before interpretation of results. […]
blue and a haemocytometer. […]
was 25 μM. […] Assays were completed
After incubation cells were […]

Giardia = system: Giardia; set-up: method as in PMID 14585063; conditions: drug treatment of Giardia infection; cited from earlier work
[2] = Giardia duodenalis, 24 h, read-out: Antigiardial activity IC50 (24 h)
[3] = toxicity tested at 25 μM vs 24 h IC50, Tables 1-3
[4] = Vero cells, Tables 1-3 (toxic if >20 % cells affected)
[5] = 24 h, read-out: Antigiardial activity IC50 (24 h)
[6] = toxicity tested at 25 μM vs 5 h IC50, Table 4
[7] = Vero cells, Table 4 (toxic if >10 % cells affected)
[8] = Giardia duodenalis, 5 h, read-out: Antigiardial activity IC50 (5 h)

Compound | IC50 [1, 2] [nM] | MIC ([1]; Giardia duodenalis, 24 h) [µM] | further results
N=C(NN=Cc1cccc(Cl)c1)NN=Cc1cccc(Cl)c1 [Compound 8] | 3500 | 6.25 (≈ 2.09 µg/mL) | –
N=C(NN=Cc1cccc(Br)c1)NN=Cc1cccc(Br)c1 [Compound 9] | 2900 | 25 (≈ 10.6 µg/mL) | –
N=C(NN=Cc1cccc(F)c1)NN=Cc1cccc(F)c1 [Compound 10] | > 25000 | > 25 | –
Cl.N=C(NN=Cc1ccccc1Br)NN=Cc1ccccc1Br [Compound 11] | 800 | 25 | Selectivity ratio [1, 3]: >31.3; Toxicity (% growth control) (CaCo-2 cells): 79.1±2.3%; Activity against gram negative bacteria / E. coli (Escherichia coli): no antibacterial activity
Cl.N=C(NN=Cc1ccccc1Cl)NN=Cc1ccccc1Cl [Compound 12] | 12400 | 25 | Activity against gram negative bacteria / E. coli (Escherichia coli): no antibacterial activity
Cl.N=C(NN=Cc1ccccc1F)NN=Cc1ccccc1F [Compound 13] | > 25000 | > 25 | Toxicity (% growth control) (Vero cells): 93.9±1.9%; Toxicity (Y/N) (Vero cells; [4]): N (compounds are indicated as toxic if >20 % cells are affected)
Cc1ccccc1C=NNC(=N)NN=Cc1ccccc1C [Compound 16] | – | 25 (≈ 7.33 µg/mL) | –
Cl.N=C(NN=Cc1ccccc1-c1ccccc1)NN=Cc1ccccc1-c1ccccc1 [Compound 18] | 2800 | > 25 | Selectivity ratio [1, 3]: >8.9; Toxicity (% growth control) (CaCo-2 cells): 75.4±3.4%
C#Cc1cccc(C=NNC(=N)NN=Cc2cccc(C#C)c2)c1 [Compound 23] | 1200 | 25 (≈ 7.83 µg/mL) | –
COc1ccc(C=NNC(=N)NN=Cc2ccc(OC)cc2)cc1.Cl [Compound 24] | 5990 | – | Selectivity ratio [1, 3]: >4.2; Toxicity (Y/N) (Vero cells; [4]): Y^[e] (compounds are indicated as toxic if >20 % cells are affected)
COc1cccc(C=NNC(=N)NN=Cc2cccc(OC)c2)c1 [Compound 25] | > 25000 | – | –
COc1ccccc1C=NNC(=N)NN=Cc1ccccc1OC.Cl [Compound 26] | – | – | Antigiardial activity MLC (24 h) ([1]; 24 h): >25 µM; IC50 [1, 5]: > 25000 nM
N=C(NN=Cc1cccc(O)c1)NN=Cc1cccc(O)c1 [Compound 28] | > 25000 | – | –
N=C(NN=Cc1ccccc1O)NN=Cc1ccccc1O [Compound 29] | > 25000 | – | –
CN(C)c1ccc(C=NN=C(N)NN=Cc2ccc(N(C)C)cc2)cc1 [Compound 33] | – | – | Antigiardial activity MLC (24 h) ([1]; 24 h): 25 µM; IC50 [1, 5]: 1100 nM
Cl.N=C(NN=Cc1ccc(Cl)cc1Cl)NN=Cc1ccc(Cl)cc1Cl [Compound 34] | – | – | Selectivity ratio [1, 6]: >10.0; Toxicity (% growth control) (Vero cells): 55.8±4.3%; Toxicity (Y/N) (Vero cells; [7]): Y (compounds are indicated as toxic if >10 % cells are affected)
Cl.N=C(NN=Cc1cc(F)ccc1F)NN=Cc1cc(F)ccc1F [Compound 37] | – | – | Antigiardial activity at 5 h ([1]; 5 h): inactive
Cl.N=C(NN=Cc1c(F)c(F)c(F)c(F)c1F)NN=Cc1c(F)c(F)c(F)c(F)c1F [Compound 39] | – | – | Antigiardial activity at 5 h ([1]; 5 h): inactive
CC(=O)Nc1cc(Cl)ccc1C=NNC(=N)NN=Cc1ccc(Cl)cc1NC(C)=O.Cl [Compound 40] | – | – | IC50 [1, 8]: 800 nM; Selectivity ratio [1, 6]: >31.3; Toxicity (% growth control) (CaCo-2 cells): 83.1±4.4%
COc1cc(C=NNC(=N)NN=Cc2cc(Br)c(OC)c(OC)c2)cc(Br)c1OC.Cl [Compound 42] | – | – | IC50 [1, 8]: 2700 nM; Selectivity ratio [1, 6]: >9.3; Toxicity (Y/N) (Vero cells; [7]): Y^[e] (compounds are indicated as toxic if >10 % cells are affected)
COc1ccc(C=NNC(=N)NN=Cc2ccc(OC)c(OC)c2)cc1OC [Compound 44] | – | – | IC50 ([1]; 5 h, read-out: Antigiardial activity IC50 (5 h)): 24900 nM; IC50 [1, 8]: ≤ 25000 nM
COc1cc(C=NNC(=N)NN=Cc2ccc(O)c(OC)c2)ccc1O [Compound 47] | – | – | IC50 [1, 8]: > 25000 nM
Cc1ncc([N+](=O)[O-])n1CCO [Metronidazole, metronidazole, reference compound] | 3800 | 8.3 (≈ 1.42 µg/mL) | Antigiardial activity at 5 h ([1]; 5 h): inactive; Selectivity ratio [1, 3]: >6.6; treatment success / reported efficacy (Giardia): 80–90%
CCCSc1ccc2nc(NC(=O)OC)[nH]c2c1 [albendazole] | – | – | treatment success / reported efficacy (Giardia): 62–95%
CCS(=O)(=O)CCn1c([N+](=O)[O-])cnc1C [tinidazole] | – | – | treatment success / reported efficacy (Giardia): 80–90%

Second part, led by results:

IC50 [1, 2] [nM] | MIC ([1]; Giardia duodenalis, 24 h) [µM] | Compound | further results
1700 | 8.3 | Cl.N=C(NN=Cc1ccc(Br)cc1)NN=Cc1ccc(Br)cc1 [Compound 6] | Selectivity ratio [1, 3]: >14.7; Toxicity (% growth control) (CaCo-2 cells): 97.1±1.6%; cell death (CaCo-2 cells): < 10%; cell death (Vero cells; Vero cells): < 10%; Activity against gram negative bacteria / E. coli (Escherichia coli): no antibacterial activity
6520 | 12.5 (≈ 3.77 µg/mL) | N=C(NN=Cc1ccc(F)cc1)NN=Cc1ccc(F)cc1 [Compound 7] | –
– | 25 (≈ 7.33 µg/mL) | Cc1ccc(C=NNC(=N)NN=Cc2ccc(C)cc2)cc1 [Compound 14] | –
4900 | 6.25 (≈ 1.83 µg/mL) | Cc1cccc(C=NNC(=N)NN=Cc2cccc(C)c2)c1 [Compound 15] | –
400 | 2.8 (≈ 1.17 µg/mL) | N=C(NN=Cc1ccc(-c2ccccc2)cc1)NN=Cc1ccc(-c2ccccc2)cc1 [Compound 17] | –
800 | 8.3 (≈ 2.9 µg/mL) | CCCc1ccc(C=NNC(=N)NN=Cc2ccc(CCC)cc2)cc1 [Compound 19] | –
1900 | 8.3 (≈ 3.13 µg/mL) | CCCCc1ccc(C=NNC(=N)NN=Cc2ccc(CCCC)cc2)cc1 [Compound 20] | –
1900 | 6.25 (≈ 2.18 µg/mL) | CC(C)c1ccc(C=NNC(=N)NN=Cc2ccc(C(C)C)cc2)cc1 [Compound 21] | –
3200 | 8.3 (≈ 3.13 µg/mL) | CC(C)(C)c1ccc(C=NNC(=N)NN=Cc2ccc(C(C)(C)C)cc2)cc1 [Compound 22] | –
> 25000 | – | N=C(NN=Cc1ccc(O)cc1)NN=Cc1ccc(O)cc1 [Compound 27] | –
200 | – | N=C(NN=Cc1ccc(OC(F)(F)F)cc1)NN=Cc1ccc(OC(F)(F)F)cc1 [Compound 30, 2,2′‐bis{[4‐(trifluoromethoxy)phenyl]methylene}carbonimidic dihydrazide hydrochloride] | –
900 | – | CSc1ccc(C=NNC(=N)NN=Cc2ccc(SC)cc2)cc1 [Compound 31] | –
200 | – | N=C(NN=Cc1ccc(SC(F)(F)F)cc1)NN=Cc1ccc(SC(F)(F)F)cc1 [Compound 32, 2,2′‐bis{[4‐(trifluoromethylsulfanyl)phenyl]methylene}carbonimidic dihydrazide hydrochloride] | –
